Reference: patent US12459951B2, “Compounds that interact with RAS superfamily proteins for treatment of cancers, inflammatory diseases, rasopathies, and fibrotic disease” (SHY Therapeutics, LLC, priority 2022, dated 2025)

Assays:
IL6 = experiment: IL-6 Quantification Assay (ELISA), LPS-stimulated RAW 264.7; type: cell-based; set-up: inhibition: dose or concentration left out as unconfirmed; settings: Mus musculus, RAW264.7; read-out: IL-6: % inh.
Erk1/2 phosphorylation = experiment: Erk1/2 Phosphorylation Assay (western blot), Panc-1; type: cell-based, human; settings: at 10 μM, * = activation
Outline: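 Phospho-Erk1/2 (Thr202/Tyr204) was detected by western blot in lysates of Panc-1 cells (KRas G12D). These had 6 h, 37° C exposure to 10 μM compound or a dilution series for IC50, in 0.3% DMSO. Cells were either starved overnight in 0.5% FBS with a 15-min 1.5 ng/ml EGF pulse, or kept unstimulated in 10% FBS.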

Akt phosphorylation = experiment: Akt Phosphorylation Assay (western blot), Panc-1; type: cell-based, human; settings: at 10 μM, * = activation
Outline: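 Phospho-Akt (Ser473) was measured by western blot in lysates of KRas G12D Panc-1 cells exposed to test compound for 6 h at 37 °C, either at 10 μM final with 0.3% DMSO or as serial dilutions for IC50. One format used overnight 0.5% FBS starvation followed by a 15 min pulse of 1.5 ng/ml EGF. The other used cells in 10% FBS with no stimulation.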

Row | SMILES | inhibition (IL6) [%] | % inh of Erk1/2 phosphorylation in Panc-1 (Erk1/2 phosphorylation) | % inh of Akt phosphorylation in Panc-1 (Akt phosphorylation)
1 | CO[C@H]1C[C@H](Nc2nc(-c3nccn3C)nn3cc(-c4ccccc4)c(-c4ccccc4)c23)C1 [Compound 203, N-((1r,3r)-3-Methoxycyclobutyl)-2-(1-methyl-1H-imidazol-2-yl)-5,6-diphenylpyrrolo[2,1-f][1,2,4]triazin-4-amine] | 75 to 100 | D (85-100% inhibition) | D (85-100% inhibition)
2 | CO[C@H]1C[C@H](Nc2nc(-c3nccn3C)nn3cc(-c4cccc(CN)c4)c(-c4ccccc4)c23)C1 [Compound 204, 6-(3-(aminomethyl)phenyl)-N-((1r,3r)-3-methoxycyclobutyl)-2-(1-methyl-1H-imidazol-2-yl)-5-phenylpyrrolo[2,1-f][1,2,4]triazin-4-amine] | 75 to 100 | D* (85-100% activation) | C* (46-84% activation)
3 | CO[C@H]1C[C@H](Nc2nc(-c3nccn3C)nn3cc(-c4ccc(CN)cc4)c(-c4ccccc4)c23)C1.Cl [Compound 206, 6-(4-(Aminomethyl)phenyl)-N-((1r,3r)-3-methoxycyclobutyl)-2-(1-methyl-1H-imidazol-2-yl)-5-phenylpyrrolo[2,1-f][1,2,4]triazin-4-amine hydrochloride salt] | 75 to 100 | B (26-49% inhibition) | C (50-84% inhibition)
4 | CO[C@H]1C[C@H](Nc2nc(-c3nccn3C)nn3cc(-c4ccc(CCN)cc4)c(-c4ccccc4)c23)C1.Cl [Compound 207, 6-(4-(2-Aminoethyl)phenyl)-N-((1r,3r)-3-methoxycyclobutyl)-2-(1-methyl-1H-imidazol-2-yl)-5-phenylpyrrolo[2,1-f][1,2,4]triazin-4-amine hydrochloride salt] | 75 to 100 | D* (85-100% activation) | C* (46-84% activation)
5 | CO[C@H]1C[C@H](Nc2nc(-c3nccn3C)nn3cc(-c4ccc(OCCN)cc4)c(-c4ccccc4)c23)C1.Cl [Compound 208, 6-(4-(2-Aminoethoxy)phenyl)-N-((1r,3r)-3-methoxycyclobutyl)-2-(1-methyl-1H-imidazol-2-yl)-5-phenylpyrrolo[2,1-f][1,2,4]triazin-4-amine hydrochloride salt] | 75 to 100 | C* (46-84% activation) | D* (85-100% activation)
6 | COc1cccc(-c2cn3nc(-c4nccn4C)nc(N[C@H]4C[C@H](OC)C4)c3c2-c2ccccc2)c1C [Compound 209, 6-(3-methoxy-2-methylphenyl)-N-((1r,3r)-3-methoxycyclobutyl)-2-(1-methyl-1H-imidazol-2-yl)-5-phenylpyrrolo[2,1-f][1,2,4]triazin-4-amine] | 75 to 100 | D (85-100% inhibition) | D (85-100% inhibition)
7 | CO[C@H]1C[C@H](Nc2nc(-c3nccn3C)nn3cc(-c4cccc5c4CCO5)c(-c4ccccc4)c23)C1 [Compound 210, 6-(2,3-Dihydrobenzofuran-4-yl)-N-((1r,3r)-3-methoxycyclobutyl)-2-(1-methyl-1H-imidazol-2-yl)-5-phenylpyrrolo[2,1-f][1,2,4]triazin-4-amine] | 75 to 100 | D (85-100% inhibition) | D (85-100% inhibition)
8 | Cc1c(-c2ccn(C)n2)cn2nc(-c3nccn3C)nc(N)c12 [Compound 211, 5-Methyl-2-(1-methyl-1H-imidazol-2-yl)-6-(1-methyl-1H-pyrazol-3-yl)pyrrolo[2,1-f][1,2,4]triazin-4-amine] | 50 to 74 | A* (1-25% activation) | A (1-25% inhibition)
9 | Cn1ccnc1-c1nc(NS(C)(=O)=O)c2c(-c3ccccc3)c(-c3ccccc3)cn2n1 [Compound 212, N-(2-(1-Methyl-1H-imidazol-2-yl)-5,6-diphenylpyrrolo[2,1-f][1,2,4]triazin-4-yl) methanesulfonamide] | 1 to 24 | B* (26-49% activation) | A* (1-25% activation)
10 | COCCCS(=O)(=O)Nc1nc(-c2nccn2C)nn2cc(-c3ccccc3)c(-c3ccccc3)c12 [Compound 213, 3-Methoxy-N-(2-(1-methyl-1H-imidazol-2-yl)-5,6-diphenylpyrrolo[2,1-f][1,2,4]triazin-4-yl)propane-1-sulfonamide] | 25 to 49 | D* (85-100% activation) | D* (85-100% activation)
11 | CO[C@H]1C[C@H](S(=O)(=O)Nc2nc(-c3nccn3C)nn3cc(-c4ccccc4)c(-c4ccccc4)c23)C1 [Compound 214, (1r,3r)-3-Methoxy-N-(2-(1-methyl-1H-imidazol-2-yl)-5,6-diphenylpyrrolo[2,1-f][1,2,4]triazin-4-yl)cyclobutane-1-sulfonamide] | 1 to 24 | A* (1-25% activation) | A* (1-25% activation)
12 | COc1ccnc(Nc2nc(-c3nccn3C)nn3cc(-c4ccn(CCNC(=O)CCCC[C@H]5SC[C@H]6NC(=O)N[C@H]65)n4)c(C)c23)c1 [Compound 215, N-(2-(3-(4-((4-methoxypyridin-2-yl)amino)-5-methyl-2-(1-methyl-1H-imidazol-2-yl)pyrrolo[2,1-f][1,2,4]triazin-6-yl)-1H-pyrazol-1-yl)ethyl)-5-((3aR,4R,6aS)-2-oxohexahydro-1H-thieno[3,4-d]imidazol-4-yl)pentanamide] | 1 to 24 | A* (1-25% activation) | B* (26-49% activation)
13 | COc1ccnc(Nc2nc(-c3nccn3CCNC(=O)CCCC[C@H]3SC[C@H]4NC(=O)N[C@H]43)nn3cc(-c4ccn(C)n4)c(C)c23)c1 [Compound 216, N-(2-(2-(4-((4-methoxypyridin-2-yl)amino)-5-methyl-6-(1-methyl-1H-pyrazol-3-yl)pyrrolo[2,1-f][1,2,4]triazin-2-yl)-1H-imidazol-1-yl)ethyl)-5-((3aR,4R,6aS)-2-oxohexahydro-1H-thieno[3,4-d]imidazol-4-yl)pentanamide] | 50 to 74 | C* (46-84% activation) | A* (1-25% activation)
14 | COc1ccnc(Nc2nc(-c3nccn3C)nn3cc(-c4c(F)cccc4OC)c(-c4ccccc4)c23)c1 [Compound 217, 6-(2-Fluoro-6-methoxyphenyl)-N-(4-methoxypyridin-2-yl)-2-(1-methyl-1H-imidazol-2-yl)-5-phenylpyrrolo[2,1-f][1,2,4]triazin-4-amine] | 75 to 100 | D* (85-100% activation) | D* (85-100% activation)
15 | CO[C@H]1C[C@H](Nc2nc(-c3nccn3C)nn3cc(-c4cnccc4C)c(-c4ccccc4)c23)C1 [Compound 218, N-((1r,3r)-3-Methoxycyclobutyl)-2-(1-methyl-1H-imidazol-2-yl)-6-(4-methylpyridin-3-yl)-5-phenylpyrrolo[2,1-f][1,2,4]triazin-4-amine] | 1 to 24 | D* (85-100% activation) | D* (85-100% activation)
16 | COc1cccc(-c2cn3nc(-c4nccn4C)nc(N[C@H]4C[C@H](OC)C4)c3c2-c2ccccc2)c1OC [Compound 219, 6-(2,3-Dimethoxyphenyl)-N-((1r,3r)-3-methoxycyclobutyl)-2-(1-methyl-1H-imidazol-2-yl)-5-phenylpyrrolo[2,1-f][1,2,4]triazin-4-amine] | 75 to 100 | D (85-100% inhibition) | D (85-100% inhibition)
17 | COc1ccnc(Oc2nc(-c3nccn3C)nn3cc(-c4ccn(C)n4)c(C)c23)c1 [Compound 220, 4-((4-Methoxypyridin-2-yl)oxy)-5-methyl-2-(1-methyl-1H-imidazol-2-yl)-6-(1-methyl-1H-pyrazol-3-yl)pyrrolo[2,1-f][1,2,4]triazine] | 25 to 49 | A (1-25% inhibition) | A (1-25% inhibition)
18 | Cc1c(-c2ccn(C)n2)cn2nc(-c3nccn3C)nc(Nc3cc4c(cn3)CCO4)c12 [Compound 221, N-(5-Methyl-2-(1-methyl-1H-imidazol-2-yl)-6-(1-methyl-1H-pyrazol-3-yl)pyrrolo[2,1-f][1,2,4]triazin-4-yl)-2,3-dihydrofuro[3,2-c]pyridin-6-amine] | 25 to 49 | A* (1-25% activation) | D* (85-100% activation)
19 | Cc1c(-c2ccn(C)n2)cn2nc(-c3nccn3C)nc(Nc3cc(N4CCOCC4)ccn3)c12 [Compound 222, 5-Methyl-2-(1-methyl-1H-imidazol-2-yl)-6-(1-methyl-1H-pyrazol-3-yl)-N-(4-morpholinopyridin-2-yl)pyrrolo[2,1-f][1,2,4]triazin-4-amine] | 50 to 74 | A* (1-25% activation) | D* (85-100% activation)
20 | COc1ccnc(N(C)c2nc(-c3nccn3C)nn3cc(-c4ccn(C)n4)c(C)c23)c1 [Compound 223, N-(4-Methoxypyridin-2-yl)-N,5-dimethyl-2-(1-methyl-1H-imidazol-2-yl)-6-(1-methyl-1H-pyrazol-3-yl)pyrrolo[2,1-f][1,2,4]triazin-4-amine] | 0 | A (1-25% inhibition) | B (26-49% inhibition)
